In US5232849A, “Bacteriocin from lactococcus lactis subspecies lactis” (Quest International Flavors & Food Ingredients Company …, priority 1992, dated 1993):

Experiments:
Assay in all cases: Spectrum of antimicrobial activity
Design in all cases: key: + = inhibition; - = no inhibition
Conditions in all cases: pure, titer 3200 AU/ml
[1] = test system: L. plantarum 346; format: cell-based, Lactobacillus plantarum
Method: (§1) Bacteriocin assay. To ascertain if the antibacterial substance is secreted into liquid medium, the cultures were grown in MRS broth and cell free filtrates of turbid cultures were made and the filtrate posted on a seeded semisolid agar overlay of the indicator. Antibacterial activity was quantitated by assigning arbitrary units. One arbitrary unit (AU) was defined as 5 μl of the culture supernatant yielding a definite, clear zone of inhibition on the indicator lawn. The titer was expressed as the reciprocal of the highest dilution of supernatant showing inhibition.

[2] = test system: L. plantarum 355; format: cell-based, Lactobacillus plantarum
Method: as §1

[3] = test system: L. casei 326; format: cell-based, Lactobacillus casei
Method: as §1

[4] = test system: L. casei 842; format: cell-based, Lactobacillus casei
Method: as §1

[5] = test system: L. brevis 329; format: cell-based, Lactobacillus brevis
Method: as §1

[6] = test system: L. brevis 888; format: cell-based, Lactobacillus brevis
Method: as §1

[7] = test system: L. fermentum 342; format: cell-based, Lactobacillus fermentum
Method: as §1

[8] = test system: L. fermentum 701; format: cell-based, Lactobacillus fermentum
Method: as §1

[9] = test system: P. acidilactici A; format: cell-based, Pediococcus acidilactici
Method: as §1

[10] = test system: P. acidilactici B; format: cell-based, Pediococcus acidilactici
Method: as §1

[11] = test system: P. acidilactici C; format: cell-based, Pediococcus acidilactici
Method: as §1

[12] = test system: P. acidilactici D; format: cell-based, Pediococcus acidilactici
Method: as §1

[13] = test system: P. acidilactici PAC 1.0; format: cell-based, Pediococcus acidilactici
Method: as §1

[14] = test system: P. pentosaceus FBB63C; format: cell-based, Pediococcus pentosaceus
Method: as §1

[15] = test system: L. monocytogenes 04; format: cell-based
Method: as §1

[16] = test system: L. monocytogenes 08; format: cell-based
Method: as §1

[17] = test system: L. monocytogenes 36; format: cell-based
Method: as §1

[18] = test system: L. monocytogenes 38; format: cell-based
Method: as §1

[19] = test system: L. monocytogenes 59; format: cell-based
Method: as §1

[20] = test system: L. monocytogenes 62; format: cell-based
Method: as §1

[21] = test system: L. monocytogenes 69; format: cell-based
Method: as §1

[22] = test system: S. mutans GS5; format: cell-based, Streptococcus mutans
Method: as §1

[23] = test system: S. mutans V262; format: cell-based, Streptococcus mutans
Method: as §1

[24] = test system: B. subtilis RM125; format: cell-based, Bacillus subtilis
Method: as §1

[25] = test system: B. subtilis amylase^+; format: cell-based, Bacillus subtilis
Method: as §1

[26] = test system: L. lactis LLA 1.0; format: cell-based, Lactococcus lactis
Method: as §1

[27] = test system: L. lactis LLA 2.0; format: cell-based, Lactococcus lactis
Method: as §1

For nisin [Nisin Pure], the “inhibition of L. plantarum 346” value [1] was “+”, the “inhibition of L. plantarum 355” value [2] was “+” and the “inhibition of L. casei 326” value [3] was “+”. The “inhibition of L. casei 842” value [4] was “+”, the “inhibition of L. brevis 329” value [5] was “+” and the “inhibition of L. brevis 888” value [6] was “+”. For the same substance, the “inhibition of L. fermentum 342” value [7] was “+”, the “inhibition of L. fermentum 701” value [8] was “+” and the “inhibition of P. acidilactici A” value [9] was “+”. The “inhibition of P. acidilactici B” value [10] was “+”, the “inhibition of P. acidilactici C” value [11] was “+” and the “inhibition of P. acidilactici D” value [12] was “+”. The “inhibition of P. acidilactici PAC 1.0” value [13] was “+”, the “inhibition of P. pentosaceus FBB63C” value [14] was “+” and the “inhibition of L. monocytogenes 04” value [15] was “+”. The “inhibition of L. monocytogenes 08” value [16] was “+”, the “inhibition of L. monocytogenes 36” value [17] was “+” and the “inhibition of L. monocytogenes 38” value [18] was “+”. The “inhibition of L. monocytogenes 59” value [19] was “+”, the “inhibition of L. monocytogenes 62” value [20] was “+” and the “inhibition of L. monocytogenes 69” value [21] was “+”. The “inhibition of S. mutans GS5” value [22] was “+”, the “inhibition of S. mutans V262” value [23] was “-” and the “inhibition of B. subtilis RM125” value [24] was “+”. The “inhibition of B. subtilis amylase^+” value [25] was “+”, the “inhibition of L. lactis LLA 1.0” value [26] was “+” and the “inhibition of L. lactis LLA 2.0” value [27] was “+”.
